Consider 28 compounds from US9206200B2, “N-linked lactam M1 receptor positive allosteric mogulators” (Merck Sharp & Dohme Corp., priority 2011, dated 2015).

pEC50: −log10 of the molar value.

In the first assay the target is T1, acetylcholine muscarinic M1 receptor (Homo sapiens, UniProt P11229).
T1 construct: expressed in transfected cells; host or cells: CHOnfat cells (CHO cells with an NFAT reporter) expressing hM1, kept under Geneticin selection
T1 sequence (P11229 1-460): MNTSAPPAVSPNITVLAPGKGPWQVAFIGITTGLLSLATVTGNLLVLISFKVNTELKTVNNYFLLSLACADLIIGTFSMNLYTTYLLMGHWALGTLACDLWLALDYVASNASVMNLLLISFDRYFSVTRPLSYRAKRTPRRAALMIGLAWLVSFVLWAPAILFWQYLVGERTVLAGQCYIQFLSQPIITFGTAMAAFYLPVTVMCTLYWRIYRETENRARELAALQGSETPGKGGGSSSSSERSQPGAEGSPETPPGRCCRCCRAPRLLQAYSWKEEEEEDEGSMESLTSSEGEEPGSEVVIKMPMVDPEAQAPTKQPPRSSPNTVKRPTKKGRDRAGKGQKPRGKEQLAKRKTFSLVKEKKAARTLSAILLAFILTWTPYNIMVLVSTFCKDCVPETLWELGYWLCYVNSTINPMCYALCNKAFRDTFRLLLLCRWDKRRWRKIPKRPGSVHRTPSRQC
Briefly: muscarinic FLIPR assay: intracellular calcium in CHOnfat/hM1 cells, potentiation of EC20 acetylcholine. It counts as cell-based. As to conditions: M1 Pot., Table 2; CHOnfat/hM1 cells, FLIPR, EC20 acetylcholine (3 nM final). Put shortly:
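CHOnfat cells stably expressing human M1, Fluo-4AM-loaded, in HBSS with 20 mM HEPES, 2.5 mM probenecid, 1% BSA. Compounds preincubated 4 min (printed "4 mM") before an EC20 acetylcholine challenge (3 nM final). FLIPR intracellular Ca²⁺ signal compared with 3 nM acetylcholine alone to detect potentiation.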
Regarding `CC1CCN(Cc2cc3c(c4ncccc24)CN([C@H]2CCCC[C@@H]2O)C3=O)CC1` [Example 87, 8-[(1S,2S)-2-hydroxycyclohexyl]-5-[(4-methylpiperidin-1-yl)methyl]-8,9-dihydro-1H-pyrrolo[3,4-h]quinolin-7-one], the pEC50 was 6.70.

The assay is the same for the next values; noted with them: Table 1; CHOnfat/hM1 cells, FLIPR, EC20 acetylcholine (3 nM final); read-out: M1 Pot.
As for `Cc1ccccc1C1(C#N)CCN(Cc2cc3c(c4ccccc24)CN([C@@H]2CCCC[C@@H]2O)C3=O)CC1` [Example 61, 1-({2-[(1R,2S)-2-hydroxycyclohexyl]-3-oxo-2,3-dihydro-1H-benzo[e]isoindol-5-yl}methyl)-4-(2-methylphenyl)piperidine-4-carbonitrile], the pEC50 is 6.97. Same read-out and setting: the same measure for `CC1c2c(cc(CN3CCC(C#N)(c4ccccn4)CC3)c3ccccc23)C(=O)N1[C@H]1CCCC[C@@H]1O` (single isomer, unassigned) [Example 44]: 8.02. On the same count and under the same terms, for `N#CC1(c2ccccc2)CCN(Cc2cc3c(c4ccccc24)CN([C@H]2CCCC[C@@H]2O)C3=O)CC1` [Example 56, 1-({2-[(1S,2S)-2-hydroxycyclohexyl]-3-oxo-2,3-dihydro-1H-benzo[e]isoindol-5-yl}methyl)-4-phenylpiperidine-4-carbonitrile] the value was 7.08; for `O=C1c2cc(CN3CCN(c4ccccn4)CC3)c3ccccc3c2CN1[C@H]1CCCC[C@@H]1O` [Example 74, 2-[(1S,2S)-2-hydroxycyclohexyl]-5-[(4-pyridin-2-ylpiperazin-1-yl)methyl]-1,2-dihydro-3H-benzo[e]isoindol-3-one], 7.34; for `Cn1cc(N2CCN(Cc3cc4c(c5ccccc35)CN(c3ccccc3F)C4=O)CC2)cn1` [Example 66, 2-(2-fluorophenyl)-5-{[4-(1-methyl-1H-pyrazol-4-yl)piperazin-1-yl]methyl}-1,2-dihydro-3H-benzo[e]isoindol-3-one], 6.56. On to `O=C1c2cc(CN3CCC(O)(c4ccncc4)CC3)c3ccccc3c2CN1C1CCCCC1O` (stereo not shown) [Example 43, 2-(2-hydroxycyclohexyl)-5-[(4-hydroxy-4-pyridin-4-ylpiperidin-1-yl)methyl]-1,2-dihydro-3H-benzo[e]isoindol-3-one], for which the pEC50 was 6.08. Still for that read-out and setting: for `CC1(C)CCN(Cc2cc3c(c4ccccc24)CN(C2CCCCC2O)C3=O)CC1` (stereo not shown) [Example 38, 5-[(4,4-dimethylpiperidin-1-yl)methyl]-2-(2-hydroxycyclohexyl)-1,2-dihydro-3H-benzo[e]isoindol-3-one] the value was 6.17; for `CN1CCN(Cc2cc3c(c4ccccc24)CN([C@H]2CCCC[C@@H]2O)C3=O)CC1=O` [Example 13, 2-[(1S,2S)-2-hydroxycyclohexyl]-5-[(4-methyl-3-oxopiperazin-1-yl)methyl]-1,2-dihydro-3H-benzo[e]isoindol-3-one], 6.25. Regarding `Cc1ccnc(C2(C#N)CCN(Cc3cc4c(c5ccccc35)CN([C@H]3CCCC[C@@H]3O)C4=O)CC2)c1` [Example 64, 1-({2-[(1S,2S)-2-hydroxycyclohexyl]-3-oxo-2,3-dihydro-1H-benzo[e]isoindol-5-yl}methyl)-4-(4-methylpyridin-2-yl)piperidine-4-carbonitrile], the pEC50 was 8.01. Same read-out and setting: the same measure for `O=C1c2cc(CN3CCC(C4CC4)CC3)c3ccccc3c2CN1C1CCCCC1O` (stereo not shown) [Example 39, 5-[(4-cyclopropylpiperidin-1-yl)methyl]-2-(2-hydroxycyclohexyl)-1,2-dihydro-3H-benzo[e]isoindol-3-one]: 5.28; for `N#CC1(c2cccnc2)CCN(Cc2cc3c(c4ccccc24)CN([C@H]2CCCC[C@@H]2O)C3=O)CC1` [Example 57]: 7.66.

The same assay, now with this note: Table 2; CHOnfat/hM1 cells, FLIPR, EC20 acetylcholine (3 nM final); read-out: M1 Pot.
With `CC1c2c(cc(CN3CCC(F)(F)CC3)c3cccnc23)C(=O)N1[C@@H]1CCOC[C@@H]1O` (stereo partly drawn) [Example 107, 1,5-anhydro-3,4-dideoxy-3-{5-[(4,4-difluoropiperidin-1-yl)methyl]-9-methyl-7-oxo-7,9-dihydro-8H-pyrrolo[3,4-h]quinolin-8-yl}-D-erythro-pentitol], the pEC50 is 7.92.

Consider `O=C1c2cc(CN3CCN(c4ccc(F)cc4)CC3)c3cccnc3c2CN1C1CCCCC1O` (stereo not shown) [Example 171, 5-{[4-(4-fluorophenyl)piperazin-1-yl]methyl}-8-(2-hydroxycyclohexyl)-8,9-dihydro-7H-pyrrolo[3,4-h]quinolin-7-one], for which the pEC50 was 7.64.

For `CCC1c2c(cc(CN3CCC(F)(F)CC3)c3cccnc23)C(=O)N1[C@@H]1CCCC[C@@H]1O` (stereo partly drawn) [Example 105, 5-[(4,4-difluoropiperidin-1-yl)methyl]-9-ethyl-8-[(1R,2S)-2-hydroxycyclohexyl]-8,9-dihydro-7H-pyrrolo[3,4-h]quinolin-7-one], the pEC50 is 8.00. Still for that read-out and setting: for `COc1ccc(N2CCN(Cc3cc4c(c5ncccc35)CN(C3CCCCC3O)C4=O)CC2)cc1` (stereo not shown) [Example 168, 8-(2-hydroxycyclohexyl)-5-{[4-(4-methoxyphenyl)piperazin-1-yl]methyl}-8,9-dihydro-7H-pyrrolo[3,4-h]quinolin-7-one] the value was 7.62; for `CC1c2c(cc(CN3CCC(c4ccccc4)CC3)c3cccnc23)C(=O)N1C1CCCCC1O` (stereo not shown) [Example 140, 8-(2-hydroxycyclohexyl)-9-methyl-5-[(4-phenylpiperidin-1-yl)methyl]-8,9-dihydro-7H-pyrrolo[3,4-h]quinolin-7-one], 5.49.

For the compound `N#CC1CCN(Cc2cc3c(c4ncccc24)CN([C@H]2CCCC[C@@H]2O)C3=O)CC1` [Example 94, 1-({8-[(1S,2S)-2-hydroxycyclohexyl]-7-oxo-8,9-dihydro-7H-pyrrolo[3,4-h]quinolin-5-yl}methyl)piperidine-4-carbonitrile], the pEC50 was 7.29. Take `Cn1cc(N2CCN(Cc3cc4c(c5ncccc35)CN([C@H]3CCCC[C@@H]3O)C4=O)CC2)cn1` [Example 157, 8-[(1S,2S)-2-hydroxycyclohexyl]-5-{[4-(1-methyl-1H-pyrazol-4-yl)piperazin-1-yl]methyl}-8,9-dihydro-7H-pyrrolo[3,4-h]quinolin-7-one]: the pEC50 was 7.38.

For the compound `O=C1c2cc(CN3CCCC(F)(F)C3)c3cccnc3c2CN1C1CCCCC1O` (stereo not shown) [Example 122, 5-[(3,3-difluoropiperidin-1-yl)methyl]-8-(2-hydroxycyclohexyl)-8,9-dihydro-7H-pyrrolo[3,4-h]quinolin-7-one], the pEC50 is 7.07. Turning to `C#CC1(F)CCN(Cc2cc3c(c4ncccc24)CN(c2cccc(O)c2)C3=O)CC1` [Example 128, 5-[(4-ethynyl-4-fluoropiperidin-1-yl)methyl]-8-(3-hydroxyphenyl)-8,9-dihydro-7H-pyrrolo[3,4-h]quinolin-7-one], the pEC50 is 6.07. Same read-out and setting: the same measure for `C[C@@H]1c2c(cc(CN3CCC(F)(c4ccccn4)CC3)c3cccnc23)C(=O)N1[C@H]1CCCC[C@@H]1O` [Example 153, (9R)-5-[(4-fluoro-4-pyridin-2-ylpiperidin-1-yl)methyl]-8-[(1S,2S)-2-hydroxycyclohexyl]-9-methyl-8,9-dihydro-7H-pyrrolo[3,4-h]quinolin-7-one]: 8.10; for `CC1c2c(cc(CN3CCC(F)(F)CC3)c3cccnc23)C(=O)N1[C@@H]1COCC[C@@H]1O` (stereo partly drawn) [Example 106, 1,5-anhydro-2,4-dideoxy-4-{5-[(4,4-difluoropiperidin-1-yl)methyl]-9-methyl-7-oxo-7,9-dihydro-8H-pyrrolo[3,4-h]quinolin-8-yl}-D-erythro-pentitol]: 6.96.

As for `C#CC1CCN(Cc2cc3c(c4ncccc24)CN(C2CCCCC2O)C3=O)CC1` (stereo not shown) [Example 124, 5-[(4-ethynylpiperidin-1-yl)methyl]-8-(2-hydroxycyclohexyl)-8,9-dihydro-7H-pyrrolo[3,4-h]quinolin-7-one], the pEC50 is 7.36. The same measure, in the same setting: for `CC1c2c(cc(CN3CCN(c4cccnc4)CC3)c3cccnc23)C(=O)N1C1CCCCC1O` (stereo not shown) [Example 164, 8-(2-hydroxycyclohexyl)-9-methyl-5-[(4-pyridin-3-ylpiperazin-1-yl)methyl]-8,9-dihydro-7H-pyrrolo[3,4-h]quinolin-7-one] the value was 7.44; for `CC1(F)CCN(Cc2cc3c(c4ncccc24)CN([C@H]2CCCC[C@@H]2O)C3=O)CC1` [Example 102, 5-[(4-fluoro-4-methylpiperidin-1-yl)methyl]-8-[(1S,2S)-2-hydroxycyclohexyl]-8,9-dihydro-7H-pyrrolo[3,4-h]quinolin-7-one], 6.60.

Still in this assay, the particulars now being: Table 3; inflection point calculated from the FLIPR values; EC20 acetylcholine (3 nM final); read-out: IP Value.
`CCc1cccc(C2(C#N)CCN(Cc3cc4c(c5ccccc35)CN([C@H]3CCCC[C@@H]3O)C4=O)CC2)n1` [Example 5, 4-(6-Ethylpyridin-2-yl)-1-({2-[(1S,2S)-hydroxycyclohexyl]-3-oxo-2,3-dihydro-1H-benzo[e]isoindol-5-yl}methyl)piperidine-4-carbonitrile]: the pEC50 was 7.26.

On to `O=C1c2cc(CN3CCC(F)(c4ccccn4)CC3)c3ccccc3c2CN1[C@H]1CCCC[C@@H]1O` [Example 2, 5-{[4-Fluoro-4-(pyridine-2-yl)piperidine-1-yl]methyl}-2-[(1S,2S)-2-hydroxycyclohexyl]-1,2-dihydro-3H-benzo[e]isoindol-3-one], for which the pEC50 was 7.24.
